Experimental data taken from US4634663A, “Method and reagent for quantitative determination of N-acetylhexosamine” (Noda Institute for Scientific Research, priority 1983, dated 1987).

Tests used:
Assay type in all cases: biochemical, Pseudomonas sp. No. 15-1
[1] = tested on: N-acetylhexosamine oxidase; experiment: Activity inhibition of the enzyme by metallic ions or inhibitors
[2] = tested on: N-acetylhexosamine oxidase; experiment: as above; conditions: for Inhibition of enzyme activity (in words): tris-hydrochloric acid buffer pH 7.5, 1.8mM; for Residual activity (%): tris-hydrochloric acid buffer solution of pH 7.5, 1.8mM metallic ion or inhibitor
Experimental: The activity of the present enzyme was measured in various solutions each comprising a tris-hydrochloric acid buffer solution of pH 7.5 and 1.8mM metallic ion or inhibitor.

[3] = tested on: N-acetylhexosamine oxidase; experiment: Activity stabilization by bovine serum albumin during heat treatment; conditions: 1 mg/ml bovine serum albumin, potassium phosphate buffer pH 6.8, 10 minutes heat treatment
Experimental: Further, in 10 minutes heat treatment at 45° C., the present enzyme is stable between pH 3 and pH 9 and loses its activity rapidly at a more acidic region and slowly at a more alkaline region. In this experiment, the hydrogen peroxide method was adopted, and the residual activity of the present enzyme subjected to 10 minutes heat treatment in a potassium phosphate buffer solution of pH 6.8 at each temperature was compared with the residual activity of the same enzyme subjected to the same treatment in a potassium phosphate buffer solution of pH 6.8 containing 1 mg/ml of bovine serum albumin.

[4] = tested on: N-acetylhexosamine oxidase; experiment: Action and specificity for substrate; conditions: in the presence of oxygen
Text: As shown in the following reaction formula, the present enzyme oxidizes N-acetylhexosamine in the presence of oxygen to form N-acetylhexosaminic acid and hydrogen peroxide.

Row | Compound | Residual activity (%) [2] [%] | also measured
1 | O=C([O-])CN(CCN(CC(=O)[O-])CC(=O)[O-])CC(=O)[O-].[Na+].[Na+].[Na+].[Na+] [EDTA, Ethylenediaminetetraacetic acid sodium salt] |  | Residual activity (%) ([1]; pH 7.5): 87%
2 | O=S(=O)([O-])[O-].[Fe+2] [FeSO4] | 15 | Inhibition of enzyme activity (in words) [2]: inhibited greatly
3 | O=S(=O)([O-])[O-].[Mn+2] [MnSO4] | 84 | 
4 | O=S(=O)([O-])[O-].[Ni+2] [NiSO4] | 64 | Inhibition of enzyme activity (in words) [2]: considerably
5 | c1ccc(-c2ccccn2)nc1 [α,α'-Dipyridyl] | 106 | 
6 | c1cnc2c(c1)ccc1cccnc12 [o'-Phenanthroline] | 81 | 
7 | Oc1cccc2cccnc12 [8-Hydroxyquinoline] |  | Residual activity (%) ([1]; pH 7.5): 102%
8 | HgCl2 | 17 | Inhibition of enzyme activity (in words) [2]: inhibited greatly
9 | O=S(=O)([O-])[O-].[Mg+2] [MgSO4] | 86 | 
10 | [Ca+2].[Cl-].[Cl-] [CaCl2] | 91 | 
11 | bovine serum albumin: bovine serum albumin added at 1 mg/ml as stabilizer of the enzyme |  | Effect on enzyme activity on heat treatment [3]: stabilized and moreover slightly enhanced
12 | CC(=O)[O-].CC(=O)[O-].[Pb+2] [Pb(CH3 COO)2] | 42 | Inhibition of enzyme activity (in words) [2]: considerably
13 | NC(=O)CI [ICH2 CONH2] | 90 | 
14 | [N-]=[N+]=[N-].[Na+] [NaN3] | 103 | 
15 | O=[N+]([O-])[O-].[Ag+] [AgNO3] |  | Residual activity (%) ([1]; Phosphate buffer solution, 1.8mM): 5%
16 | O=C(O)c1cc[c]([Hg][Cl])cc1 [PCMB, pChloromercurybenzoate] | 67 | 
17 | O=S(=O)([O-])[O-].[Co+2] [CoSO4] | 75 | 
18 | O=S(=O)([O-])[O-].[Cu+2] [CuSO4] | 74 | 
19 | O=S(=O)([O-])[O-].[Zn+2] [ZnSO4] | 2 | Inhibition of enzyme activity (in words) [2]: inhibited greatly
20 | O=C(O)CF [FCH2 COONa] | 107 | 
21 | CC(=O)N[C@H]1[C@H]([C@H](O)[C@H](O)CO)OC(O)(C(=O)O)C[C@@H]1O (stereo partly drawn) [N-acetylneuraminic acid] |  | Action of the enzyme on substrate [4]: hardly acts or does not at all act
22 | CCCCCCCCCCCCOS(=O)(=O)[O-].[Na+] [SDS, Sodium dodecylsulfate] | 87 | 
